Measured values reported in PubChem BioAssay AID624090 (The Scripps Research Institute Molecular Screening Center, 2012).
The source made the active and inactive calls.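 How the source made its calls: active means AmpC beta-lactamase inhibition with IC50 of 10 µM or lower; inactive means the rest.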

Molecular target: AmpC beta-lactamase (Escherichia coli)
Assay: E. coli AmpC beta-lactamase inhibitors, broad-spectrum VIM-2 effort – biochemical, absorbance, probe candidates and analogs, selectivity assay for nonselective VIM-2 inhibitor project, late-stage follow-up (AID 624090)
Details: recombinant AmpC, nitrocefin hydrolysis

| Compound | IC50 |
| --- | --- |
| CN1CCN(NC(=O)CN2C(=O)/C(=C/c3c(Cl)ccc(Cl)c3Cl)SC2=S)CC1 | > 60 µM (inactive) |
| CN1CCN(NC(=O)CN2C(=O)/C(=C/c3c(Cl)cccc3Cl)SC2=S)CC1 | > 60 µM (inactive) |
